The test system of one experiment is calf thymus DNA. The experiment in a line: Microplate fluorescence intensity with DNA dilutions. It counts as binding. The following applies: dye 400 nM, DNA up to 1000 ng/mL in 1×TE, Ex/Em=620/660 nm, FIG. 2. Here is the method: (§1) A series of RNA and DNA dilutions up to 1000 ng/mL in 1×TE buffer is added to the wells of a 96-well microplate. A series of mixture of RNA and DNA is prepared according to the following table, and is added to separate wells.
(§2) Compound 9 is added to each well at a final concentration of 400 nM. The fluorescence intensity is measured on a fluorescence plate reader with Ex/Em=620/660 nm.

For experiment [1], the system named is E. coli rRNA versus calf thymus DNA. The experiment in a line: Selectivity test on RNA vs dsDNA (emission spectra in TE buffer). It counts as binding. As to conditions: 10 μg/mL calf thymus DNA or E. coli rRNA in 1×TE, 5 μL of 100 μM dye per mL, excitation 620 nm, FIG. 1. On the procedure:
A stock solution of compound 9 was prepared at 100 μM concentration in DMSO. Calf thymus DNA, and E. coli rRNA were prepared at 10 μg/mL concentration in 1×TE buffer, individually. To 1 mL of DNA solution and 1 mL of RNA solution was added with 5 μL of compound 9, individually. The emission spectrum associated with each of the solutions was scaned at excitation wavelength 620 nm.

Experiment [2] concerns mixture of RNA and DNA at 1:1 ratio. Description: Selectivity test on a 1:1 mixture of RNA and DNA. It counts as binding. The following applies: dye 100 nM, RNA:DNA 1:1 up to 200 ng/mL each in 1×TE, Ex/Em=620/660 nm, FIG. 3. Here is the method:
In another experiment, a series of RNA and DNA dilutions up to 200 ng/mL in 1×TE buffer is added to the wells of a 96-well microplate. A series of mixture of RNA and DNA at 1:1 ratio is prepared according to the following table, and is added to separate wells.
Compound 9 is added to each well at a final concentration of 100 nM. The fluorescence intensity is measured on a fluorescence plate reader with Ex/Em=620/660 nm.

Another experiment concerns rRNA and 1 kb DNA Ladder. The experiment in a line: Detection of nucleic acids in electrophoretic gels (post-gel staining). The following applies: 1% agarose gel, ~1 μM dye in 1×TE, ~30 min staining, 633 nm laser, 675 nm filter. In kind it is binding. Here is the method: Agarose gels (1% agarose) are prepared according to a standard protocol. Serial two-fold dilutions of 1 kb DNA Ladder from Invitrogen and rRNA from Roche are prepared, and the resulting DNA and RNA samples are loaded onto an agarose gel. The DNA and RNA samples are electrophoretically separated in 1×TBE buffer using a standard protocol. A stock solution of compound 9 is diluted into ˜1 μM final concentration in 1×TE buffer. The agarose gels are incubated in the staining solutions for ˜30 min to stain the gels. The stained nucleic acid bands are recorded using Fuji FLA-3000 gel scanner, using 633 nm laser illumination, and a 675 nm filter.

Another experiment has as its system mixture of RNA and DNA. Description: Selectivity test on a mixture of RNA and DNA (total 1000 ng/mL). The following applies: dye 400 nM, RNA+DNA total 1000 ng/mL in 1×TE, Ex/Em=620/660 nm, FIG. 2. In kind it is binding. On the procedure: as §1, §2
The next experiment relates to rRNA, tRNA and mRNA. Description: Selectivity test on different source of RNA. As to conditions: dye 400 nM, RNA up to 1000 ng/mL in 1×TE, Ex/Em=620/660 nm, FIG. 4. It counts as binding. Here is the method:
A series of rRNA, tRNA and mRNA dilutions up to 1000 ng/mL in 1×TE buffer is added to the wells of a 96-well microplate. Compound 9 is added to each well at a final concentration of 400 nM. The fluorescence intensity is measured on a fluorescence plate reader with Ex/Em=620/660 nm.

In another experiment the test system is DNA marker. Description: Detection of nucleic acids on microarrays, DNA spots. In kind it is binding. The following applies: ~1 μM dye in 1×TE, 5 minutes, 633 nm laser excitation. Here is the method:
(§3) A microarray consisting of a dilution series of DNA marker and rRNA is printed on a slide using a microarray spotter. The slide is equilibrated in 1×SSC buffer to remove any excess printing buffer, and then soaked with compound 9 solution at ˜1 μM final concentration in 1×TE buffer for 5 minutes, followed by a 5 minute wash in 1×TE buffer to remove any excess compound. The slide is then imaged using a array scaner using 633 nm laser excitation.

The test system of experiment [3] is rRNA. The experiment in a line: Microplate fluorescence intensity with RNA dilutions. It counts as binding. The following applies: dye 400 nM, RNA up to 1000 ng/mL in 1×TE, Ex/Em=620/660 nm, FIG. 2. On the procedure:
as §1, §2

The test system of experiment [4] is rRNA. The experiment in a line: Detection of nucleic acids on microarrays, rRNA spots. In kind it is binding. As to conditions: ~1 μM dye in 1×TE, 5 minutes, 633 nm laser excitation. On the procedure:
as §3

The next experiment has as its system nucleic acids. As to conditions: cited from earlier work.

Consider `CCN(CC)Cc1ccc(C(=C\c2sc3ccc(S(=O)(=O)NCCCS(=O)(=O)[O-])cc3[n+]2C)/C=C2\C=CN(C)c3ccccc32)cc1` [Compound 9], for which the “fluorescence signal with DNA alone” value in the experiment on calf thymus DNA is reported as “little to no signal”. Besides, in experiment [1], the “selectivity for RNA versus DNA (fluorescence emission spectra)” value was “good selectivity”. For the same compound, the “selectivity on RNA in a mixture of RNA and DNA” value in experiment [2] is given as “excellent selectivity”. In addition, the “fluorescence signal of RNA bands versus corresponding DNA bands in gel” value in the experiment with rRNA and 1 kb DNA Ladder is on record as “much brighter”. Further, the “fluorescence intensity of mixture of RNA and DNA compared with RNA alone” value in the experiment with mixture of RNA and DNA is “the same for the corresponding concentration of RNA”. In the experiment on rRNA, tRNA and mRNA, the “fluorescent signal when associated with rRNA, tRNA and mRNA” value was “comparable fluorescent signal”. The “staining of DNA spots on microarray” value with DNA marker was “undetectable”. Besides, in the experiment with rRNA [3], the “fluorescence intensity response with RNA concentration” value was “nice linear response”. For the same compound, the “staining of rRNA spots on microarray” value in the experiment with rRNA [4] is on record as “stained”.
As to `CCCN1C=C/C(=C\c2sc3ccccc3[n+]2C)c2ccccc21` [SYBR Safe], the “detection sensitivity on nucleic acids” value in the experiment on nucleic acids is listed as “low sensitive”.
As for `CN1C(=Cc2cc[n+](C)c3ccccc23)Sc2ccccc21` [Thiazole Orange, reference compound], the “detection sensitivity on nucleic acids” value in the experiment with nucleic acids is “low detection sensitivity”.
